Drawing on US20170197979A1, “BENZOTHIADIAZOLAMINES” (BAYER PHARMA AKTIENGESELLSCHAFT, priority 2014, published 2017), this text covers IC50 for 11 compounds.

Molecules are shown by their SMILES.

In the assay the target is T1, human full-length MKNK1 (Homo sapiens, UniProt Q9BUB5, T385D).
T1 construct: GST (N); purchased Carna Biosciences 02-145; host or cells: insect cells (baculovirus expression system)
T1 sequence (Q9BUB5 1-424 isoform Q9BUB5-2 T344D): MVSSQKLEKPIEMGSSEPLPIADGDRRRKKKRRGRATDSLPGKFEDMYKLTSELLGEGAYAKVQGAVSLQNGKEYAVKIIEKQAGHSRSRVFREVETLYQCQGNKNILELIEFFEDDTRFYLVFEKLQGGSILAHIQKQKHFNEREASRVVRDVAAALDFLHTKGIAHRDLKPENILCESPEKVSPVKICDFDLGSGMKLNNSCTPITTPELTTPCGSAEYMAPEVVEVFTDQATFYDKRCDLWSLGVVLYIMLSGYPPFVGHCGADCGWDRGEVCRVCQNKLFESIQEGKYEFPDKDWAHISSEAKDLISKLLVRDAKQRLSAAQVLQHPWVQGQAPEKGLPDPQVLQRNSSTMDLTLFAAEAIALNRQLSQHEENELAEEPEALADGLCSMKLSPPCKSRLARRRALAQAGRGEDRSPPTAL
The assay can be described thus: MKNK1 kinase high ATP assay (TR-FRET). Format: biochemical. The settings on record: TR-FRET, high ATP (2 mM final), 15 min preincubation with enzyme, GST-MKNK1 (T344D); read-out: MKNK1 IC50. The procedure:
MKNK1 Kinase High ATP Assay
MKNK1-inhibitory activity at high ATP of compounds of the present invention after their preincubation with MKNK1 was quantified employing the TR-FRET-based MKNK1 high ATP assay as described in the following paragraphs.
A recombinant fusion protein of Glutathione-S-Transferase (GST, N-terminally) and human full-length MKNK1 (amino acids 1-424 and T344D of accession number BAA 19885.1), expressed in insect cells using baculovirus expression system and purified via glutathione sepharose affinity chromatography, was purchased from Carna Biosciences (product no 02-145) and used as enzyme. As substrate for the kinase reaction the biotinylated peptide biotin-Ahx-IKKRKLTRRKSLKG (C-terminus in amide form) was used, which can be purchased e.g. from the company Biosyntan (Berlin-Buch, Germany).
For the assay 50 nL of a 100 fold concentrated solution of the test compound in DMSO was pipetted into a black low volume 384 well microtiter plate (Greiner Bio-One, Frickenhausen, Germany), 2 μL of a solution of MKNK1 in aqueous assay buffer [50 mM HEPES pH 7.5, 5 mM MgCl2, 1.0 mM dithiothreitol, 0.005% (v/v) Nonidet-P40 (Sigma)] was added and the mixture was incubated for 15 min at 22° C. to allow pre-binding of the test compounds to the enzyme before the start of the kinase reaction. Then the kinase reaction was started by the addition of 3 μL of a solution of adenosine-tri-phosphate (ATP, 3.3 mM=>final conc. in the 5 μL assay volume is 2 mM) and substrate (0.1 μM=>final conc. in the 5 μL assay volume is 0.06 μM) in assay buffer and the resulting mixture was incubated for a reaction time of 30 min at 22° C. The concentration of MKNK1 was adjusted depending of the activity of the enzyme lot and was chosen appropriate to have the assay in the linear range, typical concentrations were in the range of 0.003 μg/mL. The reaction was stopped by the addition of 5 μL of a solution of TR-FRET detection reagents (5 nM streptavidine-XL665 [Cisbio Bioassays, Codolet, France] and 1 nM anti-ribosomal protein S6 (pSer236)-antibody from Invitrogen [#44921G] and 1 nM LANCE EU-W1024 labeled ProteinG [Perkin-Elmer, product no. AD0071]) in an aqueous EDTA-solution (100 mM EDTA, 0.1% (w/v) bovine serum albumin in 50 mM HEPES pH 7.5).
The resulting mixture was incubated for 1 h at 22° C. to allow the formation of complex between the phosphorylated biotinylated peptide and the detection reagents. Subsequently the amount of phosphorylated substrate was evaluated by measurement of the resonance energy transfer from the Eu-chelate to the streptavidine-XL. Therefore, the fluorescence emissions at 620 nm and 665 nm after excitation at 350 nm were measured in a TR-FRET reader, e.g. a Rubystar (BMG Labtechnologies, Offenburg, Germany) or a Viewlux (Perkin-Elmer). The ratio of the emissions at 665 nm and at […] was taken as the measure for the amount of phosphorylated substrate. The data were normalised (enzyme reaction without inhibitor=0% inhibition, all other assay components but no enzyme=100% inhibition).
Consider `CC(C)N(C)C(=O)[C@H]1CCc2c(sc3ncnc(Nc4ccc5nnsc5c4)c23)C1` [Example 23, (7S)-4-(1,2,3-Benzothiadiazol-6-ylamino)-N-methyl-N-(propan-2-yl)-5,6,7,8-tetrahydro[1]benzothieno[2,3-d]pyrimidine-7-carboxamide], for which the IC50 came out at 41 nM. In the case of `O=C([C@H]1CCc2c(sc3ncnc(Nc4ccc5nnsc5c4)c23)C1)N1CCC1` [Example 24, Azetidin-1-yl[(7S)-4-(1,2,3-benzothiadiazol-6-ylamino)-5,6,7,8-tetrahydro[1]benzothieno[2,3-d]pyrimidin-7-yl]methanone], the IC50 was 33 nM. For `CN(CCN)C(=O)[C@H]1CCc2c(sc3ncnc(Nc4ccc5nnsc5c4)c23)C1` [Example 25, (7S)—N-(2-Aminoethyl)-4-(1,2,3-benzothiadiazol-6-ylamino)-N-methyl-5,6,7,8-tetrahydro[1]benzothieno[2,3-d]pyrimidine-7-carboxamide], the IC50 was determined as 3.2 nM. With `CN(CC(F)F)C(=O)[C@H]1CCc2c(sc3ncnc(Nc4ccc5nnsc5c4)c23)C1` [Example 26, (7S)-4-(1,2,3-Benzothiadiazol-6-ylamino)-N-(2,2-difluoroethyl)-N-methyl-5,6,7,8-tetrahydro[1]benzothieno[2,3-d]pyrimidine-7-carboxamide], the IC50 amounted to 11 nM. The figure for `CN(CC(C)(C)O)C(=O)[C@H]1CCc2c(sc3ncnc(Nc4ccc5nnsc5c4)c23)C1` [Example 27, (7S)-4-(1,2,3-Benzothiadiazol-6-ylamino)-N-(2-hydroxy-2-methylpropyl)-N-methyl-5,6,7,8-tetrahydro[1]benzothieno[2,3-d]pyrimidine-7-carboxamide] is 15 nM. Regarding `CCN(CCO)C(=O)[C@H]1CCc2c(sc3ncnc(Nc4ccc5nnsc5c4)c23)C1` [Example 28, (7S)-4-(1,2,3-Benzothiadiazol-6-ylamino)-N-ethyl-N-(2-hydroxyethyl)-5,6,7,8-tetrahydro[1]benzothieno[2,3-d]pyrimidine-7-carboxamide], the IC50 turned out to be 8.6 nM. In the case of `CN(C)C(=O)CN(C)C(=O)[C@H]1CCc2c(sc3ncnc(Nc4ccc5nnsc5c4)c23)C1` [Example 29, (7S)-4-(1,2,3-Benzothiadiazol-6-ylamino)-N-[2-(dimethylamino)-2-oxoethyl]-N-methyl-5,6,7,8-tetrahydro[1]benzothieno[2,3-d]pyrimidine-7-carboxamide], the IC50 worked out at 7 nM. The figure for `CN(C)CCCN(C)C(=O)[C@H]1CCc2c(sc3ncnc(Nc4ccc5nnsc5c4)c23)C1` [Example 30, (7S)-4-(1,2,3-Benzothiadiazol-6-ylamino)-N-[3-(dimethylamino)propyl]-N-methyl-5,6,7,8-tetrahydro[1]benzothieno[2,3-d]pyrimidine-7-carboxamide] is 8.1 nM; for `O=C([C@H]1CCc2c(sc3ncnc(Nc4ccc5nnsc5c4)c23)C1)N1CC(F)(F)C1` [Example 31, [(7S)-4-(1,2,3-Benzothiadiazol-6-ylamino)-5,6,7,8-tetrahydro[1]benzothieno[2,3-d]pyrimidin-7-yl](3,3-difluoroazetidin-1-yl)methanone] it is 14 nM. The value for `O=C([C@H]1CCc2c(sc3ncnc(Nc4ccc5nnsc5c4)c23)C1)N1CC(O)C1` [Example 32, [(7S)-4-(1,2,3-Benzothiadiazol-6-ylamino)-5,6,7,8-tetrahydro[1]benzothieno[2,3-d]pyrimidin-7-yl](3-hydroxyazetidin-1-yl)methanone] was 33 nM. The figure for `CC1(O)CN(C(=O)[C@H]2CCc3c(sc4ncnc(Nc5ccc6nnsc6c5)c34)C2)C1` [Example 33, [(7S)-4-(1,2,3-Benzothiadiazol-6-ylamino)-5,6,7,8-tetrahydro[1]benzothieno[2,3-d]pyrimidin-7-yl](3-hydroxy-3-methylazetidin-1-yl)methanone] is 8 nM.
